From US5686486A, “4-hydroxy-benzopyran-2-ones and 4-hydroxy-cycloalkyl[b]pyran-2-ones useful to treat retroviral infections” (priority 1995, dated 1997)
pKi: −log10 of the molar value. Where “and” joins values, the source holds several entries; their conditions need not be identical. Equal entries are not always repeated.

Assays:
HIV-1 protease [1] = molecular target: T1, HIV-1 protease (Human immunodeficiency virus type 1 group M subtype B, UniProt P04585); assay: biochemical; conditions: for inhibition at 0.123 µM: read-out: HIV-1 Protease % Inhib, dose 0.123 uM; for inhibition at 0.37 µM: read-out: HIV-1 Protease % Inhib, dose 0.370 uM; for inhibition at 1.1 µM: read-out: HIV-1 Protease % Inhib, dose 1.100 uM; for inhibition at 3.3 µM: read-out: HIV-1 Protease % Inhib, dose 3.300 uM; for inhibition at 10 µM: read-out: HIV-1 Protease % Inhib, dose 10.000 uM; for inhibition at 30 µM: read-out: HIV-1 Protease % Inhib, dose 30.000 uM
How it was run: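 Percent inhibition derived from fluorescent cleavage product separated by filtration after streptavidin-bead capture of intact biotin/FITC substrate. Reaction: enzyme (10 μl, 0.1 μM stock) with substrate (20 μl, 0.2 μM stock) and compound, 1 h at room temperature in dark, pH 5.5 acetate buffer with 1.0 M NaCl and 0.05% NP-40.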

HIV-1 protease [2] = molecular target: T1, HIV-1 protease; assay: biochemical; conditions: read-out: HIV-1 FITC KI
How it was run: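 Enzyme (40 nM stock) and substrate (200 μM stock) incubated with inhibitor, 24–48 two-fold serial concentrations, for 90 min at room temperature, then quenched with avidin beads. Nonlinear least-squares analysis gives Ki; a known-Ki inhibitor validates each run.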

| Compound | inhibition at 0.123 µM (HIV-1 protease [1]) [%] | inhibition at 0.37 µM (HIV-1 protease [1]) [%] | inhibition at 1.1 µM (HIV-1 protease [1]) [%] | inhibition at 3.3 µM (HIV-1 protease [1]) [%] | inhibition at 10 µM (HIV-1 protease [1]) [%] | inhibition at 30 µM (HIV-1 protease [1]) [%] | pKi (HIV-1 protease [2]) |
| --- | --- | --- | --- | --- | --- | --- | --- |
| O=c1oc2c(c(O)c1C(c1cccc(NS(=O)(=O)c3cccc(NS(=O)(=O)CCCCl)c3)c1)C1CC1)CCCCCC2 (stereo not shown) [Example 313] | 104 | 96.5 | 101 | 100 | 106 | 102 | 8.93 |
| O=c1oc2c(c(O)c1C(c1cccc(NS(=O)(=O)c3cccnc3)c1)C1CC1)CCCCCC2 (stereo not shown) [Example 314, N-[3-[Cyclopropyl(5,6,7,8,9,10-hexahydro-4-hydroxy-2-oxo-2H-cylcloocta[b]pyran-3-yl)methyl]phenyl]-3-pyridinesulfonamide] | 79.5 | 97.7 | 108 | 109 | 102 | 97.1 | 8.64 and 8.70 |
| Cc1cncc(S(=O)(=O)Nc2cccc(C(c3c(O)c4c(oc3=O)CCCCCC4)C3CC3)c2)c1 (stereo not shown) [Example 315, N-[3-[Cyclopropyl(5,6,7,8,9,10-hexahydro4-hydroxy-2-oxo-2H-cycloocta[b]pyran-3-yl)methyl]phenyl]-5-methyl-3-pyridinesulfonamide] | 80.7 | 94.7 | 91.9 | 95.2 | 86.7 | 81.4 | 8.59 |
| C=CS(=O)(=O)Nc1cccc(C(c2c(O)c3c(oc2=O)CCCCCC3)C2CC2)c1 (stereo not shown) [Example 316, N-[3-[Cycloproopyl(5,6,7,8,9,10-hexahydro4-hydroxy-2-oxo-2H-cycloocta[b]pyran-3-yl)methyl]phenyl]-ethenesulfonamide] |  | 31.2 | 77.8 | 98.1 | 103 | 111 | 7.74 |
| CCS(=O)(=O)Nc1cccc(C(c2c(O)c3c(oc2=O)CCCCCC3)C2CC2)c1 (stereo not shown) [Example 318, N-[3-[Cyclopropyl(5,6,7,8,9,10-hexahydro-4-hydroxy-2-oxo-2H-cycloocta[b]pyran-3-yl)methyl]phenyl]-ethanesulfonamide] | 28.3 | 45.1 | 84.2 | 99.7 | 97.5 | 106 | 8.00 |
| O=c1oc2c(c(O)c1C(c1cccc(NS(=O)(=O)c3ccccc3)c1)C1CC1)CCCCCC2 (stereo not shown) [Example 319, N-[3-[Cyclopropyl(5,6,7,8,9,10-hexahydro-4-hydroxy-2-oxo-2H-cycloocta[b]pyran-3-yl)methyl]phenyl]-benzenesulfonamide] | 67 | 84.2 | 93.1 | 94.3 | 102 | 101 | 8.37 and 8.48 and 8.68 |
| O=c1oc2c(c(O)c1C(c1cccc(NS(=O)(=O)C=Cc3ccccc3)c1)C1CC1)CCCCCC2 (stereo not shown) [Example 320, N-[3-[Cyclopropyl(5,6,7,8,9,10-hexahydro-4-hydroxy-2-oxo-2H-cycloocta[b]pyran-3-yl)methyl]phenyl]-2-phenyl-ethenesulfonamide] | 66.4 | 78.5 | 98.2 | 102 | 99.3 | 99 | 8.42 and 8.68 |
| O=c1oc2c(c(O)c1C(c1cccc(NS(=O)(=O)Cc3ccccc3)c1)C1CC1)CCCCCC2 (stereo not shown) [Example 321, N-[3-[Cyclopropyl(5,6,7,8,9,10-hexahydro-4-hydroxy-2-oxo-2H-cycloocta[b]pyran-3-yl)methyl]phenyl]-benzenemethanesulfonamide] | 22.2 | 62.1 | 100 | 113 | 119 | 118 | 7.88 |
| CCCS(=O)(=O)Nc1cccc(C(c2c(O)c3c(oc2=O)CCCCCC3)C2CC2)c1 (stereo not shown) [Example 324, N-[3-[Cyclopropyl(5,6,7,8,9,10-hexahydro-4-hydroxy-2-oxo-2H-cycloocta[b]pyran-3-yl)methyl]phenyl]-1-propanesulfonamide] | 44.3 | 87.5 | 103 | 108 | 116 | 117 | 8.40 |
| O=C1c2ccccc2C(=O)N1CCS(=O)(=O)Nc1cccc(C(c2c(O)c3c(oc2=O)CCCCCC3)C2CC2)c1 (stereo not shown) [Example 327, N-[3-[Cyclopropyl(5,6,7,8,9,10-hexahydro-4-hydroxy-2-oxo-2H-cycloocta[b]pyran-3-yl)methyl]phenyl]-1,3-dihydro-1,3-dioxo-2H-isoindole-2-ethanesulfonamide] | 34.2 | 68.2 | 94.8 | 105 | 106 | 113 | 7.87 |
| O=c1oc2c(c(O)c1C(c1cccc(NS(=O)(=O)CCCCl)c1)C1CC1)CCCCCC2 (stereo not shown) [Example 331, 3-Chloro-N-[3-[cyclopropyl(5,6,7,8,9,10-hexahydro-4-hydroxy-2-oxo-2H-cycloocta[b]pyran-3-yl)methyl]phenyl]-1-propanesulfonamide] | 66.4 | 86.9 | 99.2 | 119 | 121 | 105 | 8.32 |
| O=c1oc2c(c(O)c1C(c1cccc(NS(=O)(=O)c3cc(C(F)(F)F)cc(C(F)(F)F)c3)c1)C1CC1)CCCCCC2 (stereo not shown) [Example 332, N-[3-[Cyclopropyl(5,6,7,8,9,10-hexahydro-4-hydroxy-2-oxo-2H-cycloocta[b]pyran-3-yl)methyl]phenyl]-3,5-bis(trifluoromethyl)-benzenesulfonamide] | 23.1 | 39.3 | 71.5 | 94 | 109 | 115 | 7.33 |
| CC1(C)C2CCC1(CS(=O)(=O)Nc1cccc(C(c3c(O)c4c(oc3=O)CCCCCC4)C3CC3)c1)C(=O)C2 (stereo not shown) [Example 333, N-[3-[Cyclopropyl(5,6,7,8,9,10-hexahydro-4-hydroxy-2-oxo-2H-cycloocta[b]pyran-3-yl)methyl]phenyl]-7,7-dimethyl-2-oxo-bicyclo[2.2.1]heptane-1-methanesulfonamide] |  | 28.3 | 62.2 | 82 | 102 | 110 | 6.98 |
| COc1cccc(Br)c1S(=O)(=O)Nc1cccc(C(c2c(O)c3c(oc2=O)CCCCCC3)C2CC2)c1 (stereo not shown) [Example 337, 2-Bromo-N-[3-[cyclopropyl(5,6,7,8,9,10-hexahydro-4-hydroxy-2-oxo-2H-cycloocta[b]pyran-3-yl)methyl]phenyl]-6-methoxy-benzenesulfonamide] | 10.1 | 47.9 | 93.6 | 116 | 111 | 112 | 7.42 |
| Cc1noc(C)c1S(=O)(=O)Nc1cccc(C(c2c(O)c3c(oc2=O)CCCCCC3)C2CC2)c1 (stereo not shown) [Example 338, N-[3-[Cyclopropyl(5,6,7,8,9,10-hexahydro-4-hydroxy-2-oxo-2H-cycloocta[b]pyran-3-yl)methyl]phenyl]-3,5-dimethyl-4-isoxazolesulfonamide] | 39.1 | 80.1 | 86.3 | 96.8 | 102 | 100 | 8.01 |
| O=c1oc2c(c(O)c1C(c1cccc(NS(=O)(=O)c3cccc4nsnc34)c1)C1CC1)CCCCCC2 (stereo not shown) [Example 340, N-[3-[Cyclopropyl(5,6,7,8,9,10-hexahydro-4-hydroxy-2-oxo-2H-cycloocta[b]pyran-3-yl)methyl]phenyl]-2,1,3-benzothiadiazole-4-sulfonamide] | 77.8 | 93.2 | 90.9 | 96.5 | 101 | 96.5 | 8.72 |
| CCc1ccc(S(=O)(=O)Nc2cccc(C(c3c(O)c4c(oc3=O)CCCCCC4)C3CC3)c2)cc1 (stereo not shown) [Example 341, N-[3-[Cyclopropyl(5,6,7,8,9,10-hexahydro-4-hydroxy-2-oxo-2H-cycloocta[b]pyran-3-yl)methyl]phenyl]-4-ethyl-benzenesulfonamide] | 59.4 | 92.8 | 110 | 107 | 120 | 122 | 8.30 |
| CCCCCCCCS(=O)(=O)Nc1cccc(C(c2c(O)c3c(oc2=O)CCCCCC3)C2CC2)c1 (stereo not shown) [Example 343, N-[3-[Cyclopropyl(5,6,7,8,9,10-hexahydro-4-hydroxy-2-oxo-2H-cycloocta[b]pyran-3-yl)methyl]phenyl]-1-octanesulfonamide] | 39.4 | 75 | 91.2 | 104 | 112 | 105 | 8.22 |
